Here are results for two compounds from patent US12281080B2, “Quinoline-based compounds and methods of inhibiting CDK8/19” (University of South Carolina, priority 2018, dated 2025).

Data set [1] relates to CDK8/19-mediated NFκB-driven transcription. Description: NFκB-dependent luciferase reporter assay in parental 293 reporter cells. Type of data set: cell-based, human. The following applies: parental 293-derived reporter cell line; read-out: HEK293 NFKB CDK8 Reporter IC50. (Reporter assays use an easily measured gene product as a stand-in for the process of interest.)
Another data set addresses HASPIN (Homo sapiens (Human), UniProt Q8TF76). As to the kind of experiment: DiscoverX Kd assay. The following applies: average from duplicate measurements.
For another data set, the target named is CDK8 (Homo sapiens (Human), UniProt P49336). As to the kind of experiment: DiscoverX Kd assay. The following applies: average from duplicate measurements.
The next data set relates to CDK8/19. As to the kind of experiment: Wash-off assay, MYC and JUN expression in 293 cells (QPCR). The format is cell-based, human. The following applies: 1 μM for 2 hours, then wash-off. On the procedure: RNA was extracted at different time points after wash-off (up to 24 hrs) and expression of MYC and JUN genes that are CDK8/19-dependent in these cells was measured by QPCR. […] In contrast, after Senexin C treatment and wash-off, the effects of Senexin C were largely retained for at least 6 hrs after wash-off.

In a further data set the target is MYO3B (Homo sapiens (Human), UniProt Q8WXR4). As to the kind of experiment: DiscoverX Kd assay.
The next data set deals with MAP4K2 (Homo sapiens (Human), UniProt Q12851). As to the kind of experiment: DiscoverX Kd assay. The note with it: average from duplicate measurements.
A short description of data set [2]: Mouse pharmacokinetics, intraperitoneal, serum. Type of data set: in vivo, mice. The note with it: i.p. 27 mg/kg, male Balb/c mice. As for the experimental part:
[…] Blood samples were collected at different time points (5 mice per time point) and Senexin C concentration in the serum was measured by LC/MS/MS.

Data set [3] relates to NFκB-dependent promoter in CDK8/19 deficient (double-knockout) reporter cells. Description: NFκB-dependent luciferase reporter assay, CDK8/19 double-knockout vs wild-type 293 cells. The note with it: double-knockout vs parental reporter cells.
Description: The second cell-based assay measures the effects of CDK8/19 on the expression of firefly luciferase reporter from a NFκB-dependent promoter in 293 cells.

Sequence of HASPIN (Q8TF76 whole entry): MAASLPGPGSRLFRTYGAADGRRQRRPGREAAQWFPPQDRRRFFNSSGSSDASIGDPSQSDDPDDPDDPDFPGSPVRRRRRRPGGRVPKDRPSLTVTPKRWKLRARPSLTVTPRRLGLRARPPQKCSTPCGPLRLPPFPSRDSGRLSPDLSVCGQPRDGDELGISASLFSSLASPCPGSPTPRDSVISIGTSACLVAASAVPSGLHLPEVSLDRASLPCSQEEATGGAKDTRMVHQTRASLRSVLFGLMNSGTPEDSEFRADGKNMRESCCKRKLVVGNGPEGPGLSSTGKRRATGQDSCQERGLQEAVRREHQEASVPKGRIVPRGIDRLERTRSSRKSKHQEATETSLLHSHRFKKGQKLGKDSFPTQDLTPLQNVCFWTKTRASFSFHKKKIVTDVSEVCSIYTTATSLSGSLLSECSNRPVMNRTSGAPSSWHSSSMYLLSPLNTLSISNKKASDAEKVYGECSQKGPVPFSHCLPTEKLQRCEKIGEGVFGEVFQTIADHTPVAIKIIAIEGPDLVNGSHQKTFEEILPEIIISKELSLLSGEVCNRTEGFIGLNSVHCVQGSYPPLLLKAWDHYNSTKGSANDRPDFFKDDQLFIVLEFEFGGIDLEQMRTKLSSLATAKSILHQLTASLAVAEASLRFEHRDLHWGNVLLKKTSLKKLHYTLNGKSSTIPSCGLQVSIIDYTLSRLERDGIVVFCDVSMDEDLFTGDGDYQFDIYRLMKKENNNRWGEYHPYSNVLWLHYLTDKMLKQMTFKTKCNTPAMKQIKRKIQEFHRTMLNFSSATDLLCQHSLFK
Sequence of CDK8 (P49336 whole entry): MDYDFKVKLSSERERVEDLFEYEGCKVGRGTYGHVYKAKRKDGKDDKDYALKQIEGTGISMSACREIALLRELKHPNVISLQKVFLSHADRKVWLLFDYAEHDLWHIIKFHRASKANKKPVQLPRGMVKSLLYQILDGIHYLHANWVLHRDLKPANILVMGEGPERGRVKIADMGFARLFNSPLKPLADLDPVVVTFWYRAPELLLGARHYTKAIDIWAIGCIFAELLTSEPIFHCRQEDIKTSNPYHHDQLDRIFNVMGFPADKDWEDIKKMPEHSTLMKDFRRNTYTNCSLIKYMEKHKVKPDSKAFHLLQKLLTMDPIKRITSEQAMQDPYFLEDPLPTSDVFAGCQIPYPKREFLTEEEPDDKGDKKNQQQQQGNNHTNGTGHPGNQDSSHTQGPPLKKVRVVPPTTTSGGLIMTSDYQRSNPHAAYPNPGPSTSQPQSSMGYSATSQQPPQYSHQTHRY
Sequence of MYO3B (Q8WXR4 whole entry): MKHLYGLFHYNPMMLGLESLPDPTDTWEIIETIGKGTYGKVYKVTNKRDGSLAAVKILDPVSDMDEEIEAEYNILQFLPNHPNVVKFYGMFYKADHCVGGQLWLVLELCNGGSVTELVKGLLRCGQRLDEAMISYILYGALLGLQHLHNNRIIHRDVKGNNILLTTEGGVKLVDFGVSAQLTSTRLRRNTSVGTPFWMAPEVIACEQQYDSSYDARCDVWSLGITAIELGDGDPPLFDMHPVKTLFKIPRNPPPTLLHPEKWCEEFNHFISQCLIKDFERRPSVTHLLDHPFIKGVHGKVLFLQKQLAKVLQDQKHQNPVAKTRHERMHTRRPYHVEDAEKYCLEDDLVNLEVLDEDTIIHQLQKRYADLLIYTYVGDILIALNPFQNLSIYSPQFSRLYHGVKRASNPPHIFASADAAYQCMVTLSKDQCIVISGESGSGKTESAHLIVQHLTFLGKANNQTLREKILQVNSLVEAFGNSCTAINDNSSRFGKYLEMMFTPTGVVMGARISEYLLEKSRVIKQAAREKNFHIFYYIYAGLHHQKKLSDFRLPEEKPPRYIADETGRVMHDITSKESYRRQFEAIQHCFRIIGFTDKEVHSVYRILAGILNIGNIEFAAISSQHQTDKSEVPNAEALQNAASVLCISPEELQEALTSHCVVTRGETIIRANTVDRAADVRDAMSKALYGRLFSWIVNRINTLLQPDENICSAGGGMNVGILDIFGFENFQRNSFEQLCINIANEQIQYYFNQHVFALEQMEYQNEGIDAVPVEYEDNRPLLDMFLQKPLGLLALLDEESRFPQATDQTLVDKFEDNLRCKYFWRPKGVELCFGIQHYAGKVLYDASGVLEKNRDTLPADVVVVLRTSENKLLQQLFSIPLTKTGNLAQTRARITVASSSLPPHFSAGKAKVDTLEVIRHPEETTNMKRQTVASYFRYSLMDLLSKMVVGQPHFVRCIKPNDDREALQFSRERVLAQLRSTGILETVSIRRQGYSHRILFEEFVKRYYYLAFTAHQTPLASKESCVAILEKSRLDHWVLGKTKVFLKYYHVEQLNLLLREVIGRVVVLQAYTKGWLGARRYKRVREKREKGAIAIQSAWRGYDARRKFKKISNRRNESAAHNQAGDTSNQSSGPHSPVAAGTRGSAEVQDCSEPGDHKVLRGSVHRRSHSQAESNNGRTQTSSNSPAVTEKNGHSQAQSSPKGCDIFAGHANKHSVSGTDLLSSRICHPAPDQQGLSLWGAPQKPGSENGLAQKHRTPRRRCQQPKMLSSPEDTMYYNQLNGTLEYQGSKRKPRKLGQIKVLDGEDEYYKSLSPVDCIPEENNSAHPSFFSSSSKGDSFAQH
Sequence of MAP4K2 (Q12851 whole entry): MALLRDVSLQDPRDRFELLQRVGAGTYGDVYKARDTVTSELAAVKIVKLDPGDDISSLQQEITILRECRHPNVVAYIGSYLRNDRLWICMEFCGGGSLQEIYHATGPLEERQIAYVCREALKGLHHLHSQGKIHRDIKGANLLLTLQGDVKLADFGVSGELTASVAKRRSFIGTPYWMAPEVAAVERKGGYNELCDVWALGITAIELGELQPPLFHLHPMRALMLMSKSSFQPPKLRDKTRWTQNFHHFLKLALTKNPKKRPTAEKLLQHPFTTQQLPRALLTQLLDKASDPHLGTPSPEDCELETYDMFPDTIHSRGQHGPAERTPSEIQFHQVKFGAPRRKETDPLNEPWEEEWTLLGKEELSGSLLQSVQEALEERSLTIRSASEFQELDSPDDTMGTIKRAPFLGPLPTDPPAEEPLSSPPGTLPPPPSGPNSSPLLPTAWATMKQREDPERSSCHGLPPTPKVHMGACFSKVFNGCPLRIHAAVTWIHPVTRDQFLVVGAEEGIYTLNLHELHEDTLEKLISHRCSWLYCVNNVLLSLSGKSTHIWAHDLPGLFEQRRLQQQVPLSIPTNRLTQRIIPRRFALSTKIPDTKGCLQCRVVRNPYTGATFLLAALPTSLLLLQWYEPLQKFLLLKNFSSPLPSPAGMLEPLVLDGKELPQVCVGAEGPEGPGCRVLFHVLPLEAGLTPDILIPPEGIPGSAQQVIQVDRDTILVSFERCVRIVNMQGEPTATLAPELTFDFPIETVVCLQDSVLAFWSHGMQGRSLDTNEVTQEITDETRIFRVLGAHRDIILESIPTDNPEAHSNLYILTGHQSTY

As usually defined, the IC50 is the concentration needed to halve the response being measured. What is called Kd is the equilibrium constant for the complex coming apart. Low values mean tighter binding, high ones weaker binding. By AUC is commonly meant the area under the concentration-time curve, a measure of exposure. Low values mean low exposure, high ones high exposure. In general, Cmax refers to the maximum level reached in the sampled fluid or tissue. Turning to `CN1CCN(C(=O)c2ccc3cc(CCNc4ncnc5ccc(C#N)cc45)ccc3c2)CC1` [Senexin B, reference compound], the IC50 in data set [1] was 117 nM. Also, on HASPIN, the Kd was 1700 nM. Also, on CDK8, the Kd was 59 nM. In the data set with CDK8/19, the “Time to full restoration of JUN expression after wash-off” value is on record as 45 min and the “Time to full restoration of MYC expression after wash-off” value amounted to 2 h. Besides, the “Inhibition of MYO3B” value on MYO3B is “not inhibited”. At MAP4K2, this compound showed a dissociation constant (Kd) of 570 nM. In data set [2], the AUC turned out to be 1760.53 ng·h/mL, the Cmax worked out at 4248 ng/mL, the “bioavailability (F %)” value was determined as 57% and the elimination rate k worked out at 3.99 h⁻¹. Besides, the t1/2 in data set [2] came out at 10.2 min.

For `Cc1ccc(S(=O)(=O)N[C@@H](Cc2ccccc2)C(=O)CCl)cc1` [TPCK, reference compound], the “IC50 in CDK8/19-deficient cells relative to wild-type cells” value in data set [3] was “almost the same”.
